{"source": "paper PMC5618426", "about": "“APETx4, a Novel Sea Anemone Toxin and a Modulator of the Cancer-Relevant Potassium Channel KV10.1” (Marine Drugs, 2017)", "key": {"hKV11.1 (hERG)": {"tested_on": "hKV11.1 (hERG)", "assay_type": "cell-based, human", "protocol": "For the expression of the ion channels (rNaV1.4, hNaV1.5, mNaV1.6, hKV1.1, rKV1.3, hKV1.4, hKV1.5, hKV2.1, hKV10.1a and hKV11.1,) in Xenopus oocytes, the plasmids were linearized and subsequently transcribed using the T7 or SP6 mMESSAGE-mMACHINE transcription kit (Ambion®, Carlsbad, CA, USA).\nStage V-VI Xenopus laevis oocytes were isolated by partial ovariectomy. The animals were anesthetized by a 15 min submersion in 0.1% tricaine methane sulfonate (pH 7.0). Isolated oocytes were defolliculated with 2 mg/mL collagenase.\nDefolliculated oocytes were injected with 50 nL of cRNA at a concentration of 1 ng/nL using a micro-injector (Drummond Scientific®, Broomall, PA, USA). The oocytes were incubated in a solution containing (in mM): NaCl, 96; KCl, 2; CaCl2, 1.8; MgCl2, 2 and HEPES, 5 (pH 7.4), supplemented with 50 mg/L gentamycin sulfate.\nTwo-electrode voltage-clamp recordings were performed at room temperature (18–22 °C) using an Geneclamp 500B Voltage and Patch Clamp Amplifier (Axon Instruments, Union City, CA, USA, controlled by a Axon Digidata 1550 Low-Noise Data Acquisition System (Axon Instruments). Whole cell currents from oocytes were recorded 1–4 days after injection. The normal bath solution (ND96) composition was (in mM): NaCl, 96; KCl, 2; CaCl2, 1.8; MgCl2, 2 and HEPES, 5 (pH 7.4). The high potassium solution (HK) composition was in mM): NaCl, 2; KCl, 96; CaCl2, 1.8; MgCl2, 2 and HEPES, 5 (pH 7.4). Voltage and current electrodes were filled with 3 M KCl. Resistances of both electrodes were kept between 0.5 and 1.5 MΩ. The elicited KV1.x end KV2.1 currents were filtered at 500 Hz and sampled at 2 kHz, KV10.1 currents were filtered at 1 kHz and sampled at 2 kHz, hERG currents were filtered at 1 kHz and sampled at 10 kHz and the sodium currents were filtered at 2 kHz and sampled at 20 kHz using a four-pole low-pass Bessel filter. Leak subtraction was performed using a -P/4 protocol.\nKV10.1 currents were evoked by 2 s depolarizing pulses to 0 mV from a holding potential of −90 mV. KV11.1 (hERG) peak and tail currents were generated by a 2.5 s prepulse from −90 mV to 40 mV followed by a 2.5 s pulse to −120 mV. […]\nThe peak and tail current of hERG were measured at different voltages by 1500 ms activating pulses from −60 mV to 55 mV in 5 mV steps from the holding potential of −90 mV, followed by a 750 ms step to −120 mV.\nAll electrophysiological data are presented as means ± S.E.M of n ≥ 3 independent experiments unless otherwise indicated. All data were acquired using pClamp Clampex 10.4 Molecular Devices, Downingtown, PA, USA) and analyzed using pClamp Clampfit 10.4 (Molecular Devices) and OriginPro 8 (Originlab, Northampton, MA, USA) or GraphPad Prism 6 software (GraphPad Software, Inc., San Diego, CA, USA). […]"}, "MDA-MB-435S [1]": {"tested_on": "MDA-MB-435S", "experiment": "proliferation (IncuCyte confluency)", "assay_type": "cell-based, human", "settings": "cell confluency (%) over time, n = 4 wells", "protocol": "(§1) The cell proliferation was quantified in terms of cell confluency (%) over time; data points were collected every hour. […] LNCaP, it is presumed that the observed effect cannot only be attributed to KV10.1 inhibition (Figure S5).\n(§2) Cell lines SH-SY5Y (ACC 209), LNCaP (ACC 256) and NIH-3T3 (ACC 59) were purchased from DSMZ (Germany). MDA-MB-435S (HTB 129) and hTERT RPE-1 (CRL 4000) were obtained from ATCC (USA). Cell lines were cultured in their recommended media supplemented with 10% or 15% FCS (PAA laboratories, Cölbe, Germany) at 37 °C in humidified 5% CO2 atmosphere. All media were purchased from ThermoFisher Scientific (Waltham, MA, USA).\n(§3) Cell proliferation, cytotoxicity and apoptosis were assessed in a 96-well microtiter plate by live-cell imaging using an IncuCyte Zoom System (Essen BioScience, Welwyn Garden City, UK). Cell proliferation was monitored in terms of cell confluency (%). Cell cytotoxicity was assessed by the CellTox Green Dye assay (Promega, Madison, WI, USA). The IncuCyte Caspase-3/7 apoptosis assay (Essen BioScience, UK) was used to evaluate the effect of APETx4 on the apoptotic pathway.\n(§4) Live-cell imaging data were collected from the IncuCyte Zoom software and analyzed using GraphPad Prism 6 software. Proliferation was measured as Phase Object Confluence (%), cytotoxicity and apoptosis were measured as Green Object Count (1/mm²). Data points were collected every hour. In order to improve the clarity of the graphs, only the data points for every 5 h are shown. All data are represented as mean ± S.E.M of n = 4 different wells."}, "NIH-3T3": {"tested_on": "NIH-3T3", "experiment": "proliferation (IncuCyte confluency)", "assay_type": "cell-based, mouse", "settings": "cell confluency (%) over time, n = 4 wells", "protocol": "as §1, §2, §3\nLive-cell imaging data were collected from the IncuCyte Zoom software and analyzed using GraphPad Prism 6 software. Proliferation was measured as Phase Object Confluence (%), cytotoxicity and apoptosis were measured as Green Object Count (1/mm²). Data points were collected every hour. […]"}, "LNCaP": {"tested_on": "LNCaP", "assay_type": "cell-based, human", "source_text": "(§5) The proapoptotic activity of APETx4 was visualized and quantified by the addition of the IncuCyte Caspase-3/7 Reagent. This reagent is an inert and non-fluorescent substrate, which is cleaved by activated caspase-3/7 during early apoptosis. The cleavage of the reagent releases a DNA-binding green fluorescent dye. […] In Figure 7 an overview is given for the caspase assays of all the tested cell lines.\n(§6) Figure 7 Investigation of the proapoptotic effect of APETx4 on various cell lines using a Caspase-3/7 Reagent. The amount of cells in early apoptosis was plotted as Green Object Count (1/mm²) versus time (hours). The data points represented as red triangles were obtained from apoptosis experiments with cells incubated without APETx4, the green squares represent experiments with 20 µM APETx4 and the blue circles were obtained from experiments with 50 µM APETx4.\nas §2, §3, §4"}, "MDA-MB-435S [2]": {"tested_on": "MDA-MB-435S", "assay_type": "cell-based, human", "source_text": "as §5, §6, §2, §3, §4"}, "SH-SY5Y": {"tested_on": "SH-SY5Y", "assay_type": "cell-based, human", "source_text": "as §5, §6, §2, §3, §4"}, "hTERT RPE-1": {"tested_on": "hTERT RPE-1", "assay_type": "cell-based, human", "source_text": "as §5, §6, §2, §3, §4"}, "[3]": {"settings": "50 µM APETx4, immediately after toxin addition"}, "[4]": {"settings": "50 µM APETx4, 0 h, 24 h and 48 h"}, "[5]": {"settings": "green object count (1/mm²) versus incubation time"}}, "note": "Entries after “also recorded” stand apart in the source; their conditions may differ. Positions of bridges follow the written chain, without caps; N, C: chain ends. No end group written: not given here.", "data": [{"sequence": "GTTCYCGKTIGIYWFGKYSCPTNRGYTGSCPYFLGICCYPVD (disulfide 4-37, 6-30, 20-38) [APETx4]", "values": [{"measurement": "hERG tail current at positive activation steps (≥0 mV)", "setting": "hKV11.1 (hERG); 10 µM APETx4", "result": "tail current increased"}, {"measurement": "highest inhibition of hERG inward tail current", "setting": "hKV11.1 (hERG); 10 µM APETx4, activating step to −20 mV", "result": "21 ± 5", "unit": "%"}, {"measurement": "shift of hERG activation curve towards more positive potentials", "setting": "hKV11.1 (hERG); 10 µM APETx4, inward tail currents, Boltzmann fit, n = 3, p < 0.05", "result": "7.7 ± 0.4", "unit": "mV"}, {"measurement": "selectivity KV10.1 versus hERG", "setting": "hKV11.1 (hERG); low micromolar concentrations", "result": "discriminates between KV10.1 and hERG; also recorded: makes a clear distinction between KV10.1 and hERG"}, {"measurement": "antiproliferative effect", "setting": "MDA-MB-435S [1]", "result": "concentration-dependent antiproliferative effect"}, {"measurement": "antiproliferative effect", "setting": "NIH-3T3", "result": "without affecting the proliferation of healthy fibroblast cells"}, {"measurement": "viability in cell images", "setting": "LNCaP; [3]", "result": "became less viable"}, {"measurement": "response time in caspase assay", "setting": "LNCaP; very rapid response", "result": "< 60", "unit": "min"}, {"measurement": "viability in cell images", "setting": "MDA-MB-435S [2]; [4]", "result": "immediate effects were not clearly observed"}, {"measurement": "time course of green fluorescent cells (early apoptosis)", "setting": "MDA-MB-435S [2]; [5]", "result": "gradual increase in green fluorescent cells"}, {"measurement": "viability in cell images", "setting": "SH-SY5Y; [4]", "result": "immediate effects were not clearly observed"}, {"measurement": "time course of green fluorescent cells (early apoptosis)", "setting": "SH-SY5Y; [5]", "result": "gradual increase in green fluorescent cells"}, {"measurement": "viability in cell images", "setting": "hTERT RPE-1; [3]", "result": "became less viable"}, {"measurement": "response time in caspase assay", "setting": "hTERT RPE-1; very rapid response", "result": "< 60", "unit": "min"}]}]}
